Experimental data taken from patent US20240197888A1, “SOS1 PROTEIN DEGRADERS, PHARMACEUTICAL COMPOSITIONS THEREOF, AND THEIR THERAPEUTIC APPLICATIONS” (BioTheryX, Inc., priority 2021, published 2024).

Assays:
Assay type in all cases: cell-based
Lovo (G13D) cells = experiment: Cell viability assay (CELLTITER-GLO), Lovo cells; conditions: Homo sapiens, 72 h, Inhibition of cancerous cells, 3 days incubation, luminescence
Protocol: (§1) AsPC-1, H358, and SW48 cells were cultured in RPMI 1640 media supplemented with 10% fetal bovine serum, streptomycin, and penicillin. Lovo and SW480 cells were cultured in DMEM media supplemented with 10% fetal bovine serum, streptomycin, and penicillin. The cell lines were plated in their respective medium supplemented with 2.5% fetal bovine serum, streptomycin, and penicillin. All cell lines were plated in white walled 96-well plates at 2,000 cells/well or 384-well plates at 500 cells/well, except Lovo, which were plated at 4,000 or 1,000 cells/well, respectively. The cells were incubated in DMSO (control) or a compound for 3 days at 37° C. under 5% CO2. A CELLTITER-GLO® reagent ([…] was then added to each well. After a 10 min incubation with shaking, luminescence was measured using an ENVISION® multimode plate reader. IC50 values are summarized in Table 1.

SW480 (G12V) cells = experiment: Cell viability assay (CELLTITER-GLO), SW480 cells; conditions: Homo sapiens, 72 h, Inhibition of cancerous cells, 3 days incubation, luminescence
Protocol: as §1

SW48 (wt) cells = experiment: Cell viability assay (CELLTITER-GLO), SW48 cells; conditions: Homo sapiens, 72 h, Inhibition of cancerous cells, 3 days incubation, luminescence
Protocol: as §1

H358 (G12C) cells = experiment: Cell viability assay (CELLTITER-GLO), H358 cells; conditions: Homo sapiens, NCI-H358, 72 h, Inhibition of cancerous cells, 3 days incubation, luminescence
Protocol: as §1

AsPC-1 (G12D) cells = experiment: Cell viability assay (CELLTITER-GLO), AsPC-1 cells; conditions: Homo sapiens, ASPC1, 72 h, Inhibition of cancerous cells, 3 days incubation, luminescence
Protocol: as §1

Row | Structure (SMILES) | IC50 (Lovo (G13D) cells) [µM] | IC50 (SW480 (G12V) cells) [µM] | IC50 (SW48 (wt) cells) [µM] | IC50 (H358 (G12C) cells) [µM] | IC50 (AsPC-1 (G12D) cells) [µM]
1 | CNCc1ccccc1-c1csc([C@@H](C)Nc2nc(C)nc3cc(OCCCCCCCN4CCCCC4)c(OC)cc23)c1 [Compound A2, (R)-6-methoxy-2-methyl-N-(1-(4-(2-((methylamino)methyl)phenyl)thiophen-2-yl)ethyl)-7-((7-(piperidin-1-yl)heptyl)oxy)quinazolin-4-amine] | 0.18 | 0.51 | 0.33 | 0.47 | 
2 | CNCc1ccccc1-c1csc([C@H](C)Nc2nc(C)nc3cc(OCCCCCCCN4CCCCC4)c(OC)cc23)c1 [Compound A3, (S)-6-methoxy-2-methyl-N-(1-(4-(2-((methylamino)methyl)phenyl)thiophen-2-yl)ethyl)-7-((7-(piperidin-1-yl)heptyl)oxy)quinazolin-4-amine] | 0.34 | 0.61 | 0.5 | 0.61 | 
3 | CNCc1ccccc1-c1csc([C@@H](C)Nc2nc(C)nc3cc(OCCOCCNC(=O)CC45CC6CC(CC(C6)C4)C5)c(OC)cc23)c1 [Compound A5, 2-((3r,5r,7r)-adamantan-1-yl)-N-(2-(2-((6-methoxy-2-methyl-4-(((R)-1-(4-(2-((methylamino)methyl)phenyl)thiophen-2-yl)ethyl)amino)quinazolin-7-yl)oxy)ethoxy)ethyl)-acetamide] | 0.45 | 0.55 | 0.9 | 0.91 | 
4 | CNCc1ccccc1-c1csc([C@H](C)Nc2nc(C)nc3cc(OCCOCCNC(=O)CC45CC6CC(CC(C6)C4)C5)c(OC)cc23)c1 [Compound A6, 2-((3r,5r,7r)-adamantan-1-yl)-N-(2-(2-((6-methoxy-2-methyl-4-(((S)-1-(4-(2-((methylamino)methyl)phenyl)thiophen-2-yl)ethyl)amino)quinazolin-7-yl)oxy)ethoxy)-ethyl)acetamide] | 0.48 | 0.76 | 1 | 0.97 | 
5 | COc1cc2c(N[C@H](C)c3cccc(Br)c3)nc(C)nc2cc1OCCCCCCCN1CCC(C(F)(F)F)CC1 [Compound A24, (R)—N-(1-(3-Bromophenyl)ethyl)-6-methoxy-2-methyl-7-((7-(4-(trifluoromethyl)-piperidin-1-yl)heptyl)oxy)quinazolin-4-amine] | 0.46 | 0.71 | 0.59 | 1.2 | 
6 | COc1cc2c(N[C@H](C)c3cccc(Br)c3)nc(C)nc2cc1OCCCCCCCN1CCCCC1=O [Compound A25, (R)-1-(7-((4-((1-(3-Bromophenyl)ethyl)amino)-6-methoxy-2-methylquinazolin-7-yl)oxy)heptyl)piperidin-2-one] | 0.5 | 0.78 | 1.8 | 1.4 | 
7 | COc1cc2c(N[C@H](C)c3cccc(Br)c3)nc(C)nc2cc1OCCCCCCCN1CCN(C(C)=O)CC1 [Compound A26, (R)-1-(4-(7-((4-((1-(3-Bromophenyl)ethyl)amino)-6-methoxy-2-methyl-quinazolin-7-yl)oxy)heptyl)piperazin-1-yl)ethan-1-one] | 0.54 | 0.58 | 0.6 | 1.2 | 
8 | COc1cc2c(N[C@H](C)c3cccc(Br)c3)nc(C)nc2cc1OCCCCCCC(=O)N1CCCCC1 [Compound A36, (R)-7-((4-((1-(3-Bromophenyl)ethyl)amino)-6-methoxy-2-methylquinazolin-7-yl)oxy)-1-(piperidin-1-yl)heptan-1-one] | 0.78 | 0.56 | 1.7 | 1.3 | 
9 | COc1cc2c(N[C@H](C)c3cccc(Br)c3)nc(C)nc2cc1OCCCCCCCc1ccncc1 [Compound A43, (R)—N-(1-(3-Bromophenyl)ethyl)-6-methoxy-2-methyl-7-((7-(pyridin-4-yl)heptyl)-oxy)quinazolin-4-amine] | 2.2 | 1.9 | 3.6 | 5.4 | 
10 | COc1cc2c(N[C@H](C)c3cccc(Br)c3)nc(C)nc2cc1OCCCCCCCN1CCCC(F)(F)C1 [Compound A44, (R)—N-(1-(3-Bromophenyl)ethyl)-7-((7-(3,3-difluoropiperidin-1-yl)heptyl)oxy)-6-methoxy-2-methylquinazolin-4-amine] | 0.55 | 1.2 | 2 | 1.9 | 
11 | CNCc1ccccc1-c1csc([C@@H](C)Nc2nc(C)nc3cc(OCCCCCOC(=O)CC45CC6CC(CC(C6)C4)C5)c(OC)cc23)c1 [Compound A45, 5-((6-Methoxy-2-methyl-4-(((R)-1-(4-(2-((methylamino)methyl)phenyl)thiophen-2-yl)ethyl)amino)quinazolin-7-yl)oxy)pentyl 2-((3r,5r,7r)-adamantan-1-yl)acetate] | 0.45 | 0.57 | 1 | 0.85 | 
12 | CNCc1ccccc1-c1csc([C@H](C)Nc2nc(C)nc3cc(OCCCCCOC(=O)CC45CC6CC(CC(C6)C4)C5)c(OC)cc23)c1 [Compound A46, 5-((6-Methoxy-2-methyl-4-(((S)-1-(4-(2-((methylamino)methyl)phenyl)thiophen-2-yl)ethyl)amino)quinazolin-7-yl)oxy)pentyl 2-((3r,5r,7r)-adamantan-1-yl)acetate] | 1.5 | 1.2 | 1.1 | 1.5 | 
13 | CNCc1ccccc1-c1csc([C@@H](C)Nc2nc(C)nc3cc(OCCOCCOC(=O)CC45CC6CC(CC(C6)C4)C5)c(OC)cc23)c1 [Compound A47, 2-(2-((6-Methoxy-2-methyl-4-(((R)-1-(4-(2-((methylamino)methyl)phenyl)-thiophen-2-yl)ethyl)amino)quinazolin-7-yl)oxy)ethoxy)ethyl 2-((3r,5r,7r)-adamantan-1-yl)acetate] | 0.43 | 0.58 | 0.64 | 0.76 | 
14 | CNCc1ccccc1-c1csc([C@H](C)Nc2nc(C)nc3cc(OCCOCCOC(=O)CC45CC6CC(CC(C6)C4)C5)c(OC)cc23)c1 [Compound A48, 2-(2-((6-Methoxy-2-methyl-4-(((S)-1-(4-(2-((methylamino)methyl)phenyl)-thiophen-2-yl)ethyl)amino)quinazolin-7-yl)oxy)ethoxy)ethyl 2-((3r,5r,7r)-adamantan-1-yl)acetate] | 0.58 | 0.57 | 0.57 | 0.94 | 
15 | CNCc1ccccc1-c1csc([C@@H](C)Nc2nc(C)nc3cc(OCCNC(=O)CC45CC6CC(CC(C6)C4)C5)c(OC)cc23)c1 [Compound A51, 2-((3r,5r,7r)-Adamantan-1-yl)-N-(2-((6-methoxy-2-methyl-4-(((R)-1-(4-(2-((methylamino)methyl)phenyl)thiophen-2-yl)ethyl)amino)quinazolin-7-yl)oxy)ethyl)acetamide] | 0.47 | 0.62 | 0.75 | 1.1 | 
16 | CNCc1ccccc1-c1csc([C@H](C)Nc2nc(C)nc3cc(OCCNC(=O)CC45CC6CC(CC(C6)C4)C5)c(OC)cc23)c1 [Compound A52, 2-((3r,5r,7r)-Adamantan-1-yl)-N-(2-((6-methoxy-2-methyl-4-(((S)-1-(4-(2-((methylamino)methyl)phenyl)thiophen-2-yl)ethyl)amino)quinazolin-7-yl)oxy)ethyl)acetamide] | 0.43 | 0.61 | 0.89 | 1.2 | 
17 | CNCc1ccccc1-c1csc([C@H](C)Nc2nc(C)nc3cc(OCCCCCCC(C)(C)C)c(OC)cc23)c1 [Compound A59, (S)-7-((7,7-Dimethyloctyl)oxy)-6-methoxy-2-methyl-N-(1-(4-(2-((methylamino)-methyl)phenyl)thiophen-2-yl)ethyl)quinazolin-4-amine] |  |  |  |  | 3.1
18 | COc1cc2c(N[C@H](C)c3cccc(Br)c3)nc(C)nc2cc1OCCCCc1ccncc1 [Compound A73, (R)—N-(1-(3-Bromophenyl)ethyl)-6-methoxy-2-methyl-7-(4-(pyridin-4-yl)-butoxy)quinazolin-4-amine] | 1.4 | 1 | 4.1 | 2.6 | 
19 | COc1cc2c(N[C@H](C)c3cccc(Br)c3)nc(C)nc2cc1OCCCCCCCN1C(C)(C)CCCC1(C)C [Compound A74, (R)—N-(1-(3-Bromophenyl)ethyl)-6-methoxy-2-methyl-7-((7-(2,2,6,6-tetramethyl-piperidin-1-yl)heptyl)oxy)quinazolin-4-amine] | 0.34 | 0.42 | 0.56 | 0.65 | 
20 | COc1cc2c(N[C@H](C)c3cccc(Br)c3)nc(C)nc2cc1OCCCCCCCN1CCOCC1 [Compound A75, (R)—N-(1-(3-Bromophenyl)ethyl)-6-methoxy-2-methyl-7-((7-morpholinoheptyl)-oxy)quinazolin-4-amine] | 0.25 | 0.59 | 0.66 | 0.73 | 
21 | COc1cc2c(N[C@H](C)c3cccc(Br)c3)nc(C)nc2cc1OCCCCCCCC(=O)N[C@H]1CCC(=O)NC1=O [Compound A77, 8-((4-(((R)-1-(3-Bromophenyl)ethyl)amino)-6-methoxy-2-methylquinazolin-7-yl)oxy)-N—((S)-2,6-dioxopiperidin-3-yl)octanamide] | 2.9 | 3.9 | 5.1 | 6.7 | 
